{"source": "patent US4797280A", "about": "“Antibiotics produced by Kibdelosporangium aridum Shearer gen. nov., sp. nov. ATCC 39323” (SmithKline Beckman Corporation, priority 1986, dated 1989)", "test_system": "rumen fluid from dairy cows", "assay": "Rumen in vitro experiment with dairy cow rumen fluid", "details": "about 23 hours", "procedure": "A similar experiment was carried out using rumen fluid from dairy cows fed a typical dairy cow diet of two parts corn silage and three parts dairy concentrate. Specifically, strained rumen fluid (10 ml) was obtained, from an animal fed two hours earlier, via cannula and was mixed with 10 ml of a nutrient broth comprising a 2:3 mix of corn silage and dairy concentrate. After adding a selected growth promotant, the mixture was incubated at 39° C. for about 23 hours, with oscillation.", "data": [{"compound": "CC[C@@H](C(=O)[C@@H](C)[C@@H](O)[C@H](C)CCc1ccc(C)c(O)c1C(=O)O)[C@H]1O[C@](CC)([C@H]2CC[C@](O)(CC)[C@H](C)O2)C[C@@H]1C", "note": "[Lasalocid]", "values": [{"measurement": "% PR", "setting": "0.5 ppm", "result": 114, "unit": "% OF CONTROL"}, {"measurement": "ACE", "setting": "0.5 ppm", "result": 95, "unit": "% OF CONTROL"}, {"measurement": "AMO", "setting": "0.5 ppm", "result": 93, "unit": "% OF CONTROL"}, {"measurement": "BUT", "setting": "0.5 ppm", "result": 94, "unit": "% OF CONTROL"}, {"measurement": "DLAC", "setting": "0.5 ppm", "result": 0, "unit": "% OF CONTROL"}, {"measurement": "ETOH", "setting": "0.5 ppm", "result": 0, "unit": "% OF CONTROL"}, {"measurement": "GLU", "setting": "0.5 ppm", "result": 0, "unit": "% OF CONTROL"}, {"measurement": "IBU", "setting": "0.5 ppm", "result": 119, "unit": "% OF CONTROL"}, {"measurement": "IVA", "setting": "0.5 ppm", "result": 102, "unit": "% OF CONTROL"}, {"measurement": "LLAC", "setting": "0.5 ppm", "result": 0, "unit": "% OF CONTROL"}, {"measurement": "LYS", "setting": "0.5 ppm", "result": 106, "unit": "% OF CONTROL"}, {"measurement": "NH--N", "setting": "0.5 ppm", "result": 106, "unit": "% OF CONTROL"}, {"measurement": "PRO", "setting": "0.5 ppm", "result": 112, "unit": "% OF CONTROL"}, {"measurement": "TOTAL", "setting": "0.5 ppm", "result": 99, "unit": "% OF CONTROL"}, {"measurement": "VAL", "setting": "0.5 ppm", "result": 87, "unit": "% OF CONTROL"}, {"measurement": "% PR", "setting": "5 ppm", "result": 136, "unit": "% OF CONTROL"}, {"measurement": "ACE", "setting": "5 ppm", "result": 109, "unit": "% OF CONTROL"}, {"measurement": "AMO", "setting": "5 ppm", "result": 198, "unit": "% OF CONTROL"}, {"measurement": "BUT", "setting": "5 ppm", "result": 79, "unit": "% OF CONTROL"}, {"measurement": "DLAC", "setting": "5 ppm", "result": 0, "unit": "% OF CONTROL"}, {"measurement": "ETOH", "setting": "5 ppm", "result": 0, "unit": "% OF CONTROL"}, {"measurement": "GLU", "setting": "5 ppm", "result": 0, "unit": "% OF CONTROL"}, {"measurement": "IBU", "setting": "5 ppm", "result": 164, "unit": "% OF CONTROL"}, {"measurement": "IVA", "setting": "5 ppm", "result": 91, "unit": "% OF CONTROL"}, {"measurement": "LLAC", "setting": "5 ppm", "result": 0, "unit": "% OF CONTROL"}, {"measurement": "LYS", "setting": "5 ppm", "result": 130, "unit": "% OF CONTROL"}, {"measurement": "NH--N", "setting": "5 ppm", "result": 131, "unit": "% OF CONTROL"}, {"measurement": "PRO", "setting": "5 ppm", "result": 144, "unit": "% OF CONTROL"}, {"measurement": "TOTAL", "setting": "5 ppm", "result": 106, "unit": "% OF CONTROL"}, {"measurement": "VAL", "setting": "5 ppm", "result": 90, "unit": "% OF CONTROL"}, {"measurement": "% PR", "setting": "50 ppm", "result": 186, "unit": "% OF CONTROL"}, {"measurement": "ACE", "setting": "50 ppm", "result": 65, "unit": "% OF CONTROL"}, {"measurement": "AMO", "setting": "50 ppm", "result": 278, "unit": "% OF CONTROL"}, {"measurement": "BUT", "setting": "50 ppm", "result": 62, "unit": "% OF CONTROL"}, {"measurement": "DLAC", "setting": "50 ppm", "result": 0, "unit": "% OF CONTROL"}, {"measurement": "ETOH", "setting": "50 ppm", "result": 0, "unit": "% OF CONTROL"}, {"measurement": "GLU", "setting": "50 ppm", "result": 0, "unit": "% OF CONTROL"}, {"measurement": "IBU", "setting": "50 ppm", "result": 51, "unit": "% OF CONTROL"}, {"measurement": "IVA", "setting": "50 ppm", "result": 41, "unit": "% OF CONTROL"}, {"measurement": "LLAC", "setting": "50 ppm", "result": 0, "unit": "% OF CONTROL"}, {"measurement": "LYS", "setting": "50 ppm", "result": 150, "unit": "% OF CONTROL"}, {"measurement": "NH--N", "setting": "50 ppm", "result": 78, "unit": "% OF CONTROL"}, {"measurement": "PRO", "setting": "50 ppm", "result": 151, "unit": "% OF CONTROL"}, {"measurement": "TOTAL", "setting": "50 ppm", "result": 81, "unit": "% OF CONTROL"}, {"measurement": "VAL", "setting": "50 ppm", "result": 53, "unit": "% OF CONTROL"}]}, {"compound": "Avoparcin", "values": [{"measurement": "% PR", "setting": "0.5 ppm", "result": 101, "unit": "% OF CONTROL"}, {"measurement": "ACE", "setting": "0.5 ppm", "result": 100, "unit": "% OF CONTROL"}, {"measurement": "AMO", "setting": "0.5 ppm", "result": 79, "unit": "% OF CONTROL"}, {"measurement": "BUT", "setting": "0.5 ppm", "result": 100, "unit": "% OF CONTROL"}, {"measurement": "DLAC", "setting": "0.5 ppm", "result": 0, "unit": "% OF CONTROL"}, {"measurement": "ETOH", "setting": "0.5 ppm", "result": 0, "unit": "% OF CONTROL"}, {"measurement": "GLU", "setting": "0.5 ppm", "result": 0, "unit": "% OF CONTROL"}, {"measurement": "IBU", "setting": "0.5 ppm", "result": 122, "unit": "% OF CONTROL"}, {"measurement": "IVA", "setting": "0.5 ppm", "result": 101, "unit": "% OF CONTROL"}, {"measurement": "LLAC", "setting": "0.5 ppm", "result": 0, "unit": "% OF CONTROL"}, {"measurement": "LYS", "setting": "0.5 ppm", "result": 91, "unit": "% OF CONTROL"}, {"measurement": "NH--N", "setting": "0.5 ppm", "result": 92, "unit": "% OF CONTROL"}, {"measurement": "PRO", "setting": "0.5 ppm", "result": 102, "unit": "% OF CONTROL"}, {"measurement": "TOTAL", "setting": "0.5 ppm", "result": 1200, "unit": "% OF CONTROL"}, {"measurement": "VAL", "setting": "0.5 ppm", "result": 97, "unit": "% OF CONTROL"}, {"measurement": "% PR", "setting": "5 ppm", "result": 113, "unit": "% OF CONTROL"}, {"measurement": "ACE", "setting": "5 ppm", "result": 94, "unit": "% OF CONTROL"}, {"measurement": "AMO", "setting": "5 ppm", "result": 107, "unit": "% OF CONTROL"}, {"measurement": "BUT", "setting": "5 ppm", "result": 91, "unit": "% OF CONTROL"}, {"measurement": "DLAC", "setting": "5 ppm", "result": 0, "unit": "% OF CONTROL"}, {"measurement": "ETOH", "setting": "5 ppm", "result": 0, "unit": "% OF CONTROL"}, {"measurement": "GLU", "setting": "5 ppm", "result": 0, "unit": "% OF CONTROL"}, {"measurement": "IBU", "setting": "5 ppm", "result": 146, "unit": "% OF CONTROL"}, {"measurement": "IVA", "setting": "5 ppm", "result": 115, "unit": "% OF CONTROL"}, {"measurement": "LLAC", "setting": "5 ppm", "result": 0, "unit": "% OF CONTROL"}, {"measurement": "LYS", "setting": "5 ppm", "result": 92, "unit": "% OF CONTROL"}, {"measurement": "NH--N", "setting": "5 ppm", "result": 122, "unit": "% OF CONTROL"}, {"measurement": "PRO", "setting": "5 ppm", "result": 112, "unit": "% OF CONTROL"}, {"measurement": "TOTAL", "setting": "5 ppm", "result": 99, "unit": "% OF CONTROL"}, {"measurement": "VAL", "setting": "5 ppm", "result": 103, "unit": "% OF CONTROL"}, {"measurement": "% PR", "setting": "50 ppm", "result": 128, "unit": "% OF CONTROL"}, {"measurement": "ACE", "setting": "50 ppm", "result": 108, "unit": "% OF CONTROL"}, {"measurement": "AMO", "setting": "50 ppm", "result": 123, "unit": "% OF CONTROL"}, {"measurement": "BUT", "setting": "50 ppm", "result": 88, "unit": "% OF CONTROL"}, {"measurement": "DLAC", "setting": "50 ppm", "result": 0, "unit": "% OF CONTROL"}, {"measurement": "ETOH", "setting": "50 ppm", "result": 0, "unit": "% OF CONTROL"}, {"measurement": "GLU", "setting": "50 ppm", "result": 0, "unit": "% OF CONTROL"}, {"measurement": "IBU", "setting": "50 ppm", "result": 116, "unit": "% OF CONTROL"}, {"measurement": "IVA", "setting": "50 ppm", "result": 104, "unit": "% OF CONTROL"}, {"measurement": "LLAC", "setting": "50 ppm", "result": 0, "unit": "% OF CONTROL"}, {"measurement": "LYS", "setting": "50 ppm", "result": 88, "unit": "% OF CONTROL"}, {"measurement": "NH--N", "setting": "50 ppm", "result": 148, "unit": "% OF CONTROL"}, {"measurement": "PRO", "setting": "50 ppm", "result": 137, "unit": "% OF CONTROL"}, {"measurement": "TOTAL", "setting": "50 ppm", "result": 107, "unit": "% OF CONTROL"}, {"measurement": "VAL", "setting": "50 ppm", "result": 99, "unit": "% OF CONTROL"}]}]}
